Assay [1] has as its target T1, Beta-secretase 1 (Homo sapiens, UniProt P56817). Nature of the assay: Inhibition of BACE1 expressed in HEK cells by cell-based assay. Also noted: species or system HEK293.
Assay [2] has as its target T1, Beta-secretase 1. Nature of the assay: Inhibition of BACE1 by FRET assay.

T1 sequence (P56817 whole entry): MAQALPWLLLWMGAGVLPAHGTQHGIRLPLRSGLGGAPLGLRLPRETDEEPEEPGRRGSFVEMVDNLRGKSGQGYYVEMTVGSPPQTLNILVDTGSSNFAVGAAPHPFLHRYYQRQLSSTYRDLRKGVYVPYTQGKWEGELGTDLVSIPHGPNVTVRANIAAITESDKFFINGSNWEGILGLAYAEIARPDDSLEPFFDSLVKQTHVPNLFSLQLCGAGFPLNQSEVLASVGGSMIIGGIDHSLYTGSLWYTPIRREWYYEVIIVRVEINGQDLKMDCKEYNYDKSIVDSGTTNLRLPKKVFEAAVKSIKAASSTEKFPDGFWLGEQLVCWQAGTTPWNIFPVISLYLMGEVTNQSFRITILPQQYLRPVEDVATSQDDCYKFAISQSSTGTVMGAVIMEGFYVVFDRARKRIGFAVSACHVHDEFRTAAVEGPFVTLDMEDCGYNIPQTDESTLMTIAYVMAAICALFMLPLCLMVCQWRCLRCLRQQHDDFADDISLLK

A word on the IC50: it is the midpoint of a concentration-inhibition curve. A high value points to weaker potency in that assay. `NC1=N[C@@]2(COCC1)c1cc(-c3cccnc3F)ccc1Oc1cnc(-c3ccnc(F)c3)cc12`: the IC50 in assay [1] is 1 nM.
Compound `CC(C)(C)COc1cc(F)c2c(c1)[C@]1(COCCC(N)=N1)c1cc(-c3cccnc3F)ccc1O2` yielded an IC50 in assay [1] of 7 nM.
As for `NC1=N[C@@]2(CCOC1)c1cc(-c3cccnc3F)ccc1Oc1cnc(-c3ccc(F)c(F)c3)cc12`, the IC50 was determined as 2 nM in assay [2] and 19 nM in assay [1].
For `NC1=N[C@@]2(CCOC1)c1cc(-c3cccnc3F)ccc1Oc1cnc(C3CCC(F)(F)C3)cc12` (stereo partly specified), the IC50 was 3 nM in assay [2] and 4 nM in assay [1].
